Test results taken from US11311561B2, “Composition and method for treating, relieving or preventing neuropathic pain, containing choline alfoscerate as active ingredient” (NANOSTEM CO., LTD., priority 2017, dated 2022).
Several values for one entry are separate records, joined by “and”; a condition that tells them apart may be missing. Equal entries are not always repeated.

Tests used:
[1] = test system: patients with neuropathic pain; test: Clinical trial: pain intensity by 11-point pain intensity numerical rating scale (PI-NRS) over 12 weeks; type: in vivo, human
Excerpt: Patients with neuropathic pain were selected as subjects. The patients were asked to report the characteristics of neuropathic pain (type of neuropathic pain, site of occurrence, time of occurrence and frequency of occurrence), causative factors of pain, presence of diseases and relationship with pain, relationship between pain and drug medication, medication of therapeutic agents for pain, etc.
The characteristics of “nerve block treatment group (control group)” patients are described in Table 1, the characteristics of “choline alfoscerate intravenous administration group (Example 1)” patients are described in Table 2 and the characteristics of “choline alfoscerate oral administration group (Example 2)” patients are described in Table 3.
(§1) The “nerve block treatment group (control group)” patients were injected with 5 mL of 0.5% lidocaine at the sites of pain (4-5 points), once a week.
(§2) The “choline alfoscerate intravenous administration group (Example 1)” patients were intravenously injected slowly with choline alfoscerate (1 g/4 mL) mixed in 100 mL of physiological saline, twice a week.
(§3) The “choline alfoscerate oral administration group (Example 2)” patients were […] with choline alfoscerate (400 mg/capsule), 3 times a day.
Pain intensity was measured for 12 weeks. The pain intensity was evaluated according to the 11-point pain intensity numerical rating scale (PI-NRS), where 0=no pain, weakest pain=1 and most severe pain=10. 2-point reduction in the pain intensity was considered clinically significant as reported (Farrar 2001, Rowbotham 2001, Hawker 2011). The pain intensity was measured on the first visit (T0) and was compared with the pain intensity 2 weeks (T1), 4 weeks (T2), 6 weeks (T3), 8 weeks (T4), 10 weeks (T5) and 12 weeks (T6) after the first drug administration.
Statistical analysis was conducted using the SASS package ver. 23 and significance was tested by the paired t-test.

[2] = test system: spared nerve injury (SNI) rat model; test: Von Frey filament test (50% up and down threshold) for mechanical allodynia; type: in vivo, Sprague-Dawley (SD) male rats; conditions: for Mechanical threshold (von Frey), Before: 4 weeks after surgery, before drug treatment; for Effect on mechanical allodynia (in words): pregabalin 30 mg/kg or choline alfoscerate 325 mg/kg ip once a day for one week
Excerpt: The spared nerve injury (SNI) rat model was used as an efficient neuropathic pain model and von Freytest was used for assessing mechanical threshold. The SNI model, one of the peripheral nerve injury models that made from the 3 nerve branches (sciatic nerve), the one was spared, and the other 2 nerves (tibial, common peroneal nerve) were axotomized. Within 4 days of injury, mechanical and thermal hyperalgesia occurs, lasting weeks to up to 6 months.
Sprague-Dawley (SD) male rats (Koatech, South Korea) weighing 100-150 g, were used to generate neuropathic pain rat models. The rats were maintained under specifically controlled conditions (ambient temperature 23±2° C., 12-h light/dark cycle). Food pellets (DBL, Chungbuk, South Korea) and water were supplied ad libitum. All procedures complied with Institutional Animal Care and Use Committee of Dankook University (IACUC, South Korea), which adheres to the guidelines issued by the Institution of Laboratory of Animal Resources.
After surgery, rats were divided into three groups: (1) control (0.9% normal saline), (2) pregabalin (30 mg/kg), (3) choline alfoscerate (325 mg/kg).
Four weeks later after surgery, Drugs were injected intraperitoneally once a day for one week.
To generate an efficient neuropathic pain model, the rats were anesthetized under 3% isoflurane (Hana Pharm., South Korea), the left calf of the rat leg was incised and the common peroneal and the tibial nerve of three peripheral nerve branches in the sciatic nerve were axotomized and the sural nerve was spared then the surgical site was closed. After the surgery, animals were placed in the home cage to recover. 2 weeks after surgery, hypersensitivity will occur in the lateral area of the rat left hind paw.
4 weeks later after surgery, we applied von Frey filament test established by 50% up and down threshold method for evaluate mechanical allodynia in SNI model we made (Chaplan et al. 1994). The pain measurement was carried out by three people in order to objectify the results. Rats were habituated 5 minutes in the apparatus. […] We stimulated 5 times in the ventral aspect of rat left paw using each filament from thick to thin. If the rat response to stimulate over 3 times, we considered that the rat has NP. The pain response was determined by the behaviors of the rats suddenly took off their foot and shrank or licked their foot with their tongues. The behavioural patterns of the pain were recorded to calculate the threshold value of the pain.
4 weeks after surgery, when the mechanical stimuli were applied to the left paw of rats using von Frey monofilaments, thresholds were calculated by looking at the behavioral patterns. Through this test, the behavioral patterns that appeared when mechanical stimuli were applied to the neuropathic pain model and expressed as threshold which was a […] assessment of the pain scoring.

[3] = Clinical trial: side effects after the treatment; type: in vivo, human; conditions: Example 1: iv 1 g twice a week; Example 2: oral 400 mg 3 times a day; patients
Experimental: as §1, §2, §3
Because choline alfoscerate has no effect on the kidney and liver, it is thought that it can be used for people with kidney or liver problems as a therapeutic agent for neuropathic pain.

CCN(CC)CC(=O)Nc1c(C)cccc1C [Control group, lidocaine]
Pain intensity (PI-NRS) ([1]; T0, first visit before drug administration, nerve block group, 5 mL of 0.5% lidocaine at sites of pain once a week, n=38): 7.00 ± 0.52 points
Pain intensity (PI-NRS) ([1]; T0, first visit before drug administration, nerve block group, 5 mL of 0.5% lidocaine at sites of pain once a week, n=38, listed as control group): 7.00 points
Decrease in pain intensity (PI-NRS) from T0 ([1]; T0 to T1 (2 weeks), nerve block 0.5% lidocaine once a week): 1.61 points
Decrease in pain intensity (PI-NRS) from T0 ([1]; T0 to T6 (12 weeks), nerve block 0.5% lidocaine once a week): 4.76 points
Pain intensity (PI-NRS) ([1]; T1, 2 weeks after first administration, nerve block 0.5% lidocaine once a week): 5.39 ± 0.89 points
Pain intensity (PI-NRS) ([1]; T1, 2 weeks after first administration, nerve block 0.5% lidocaine once a week, listed as control group): 5.39 points
Pain intensity (PI-NRS) ([1]; T2, 4 weeks, nerve block 0.5% lidocaine once a week): 4.66 ± 0.85 points
Pain intensity (PI-NRS) ([1]; T3, 6 weeks, nerve block 0.5% lidocaine once a week): 3.63 ± 0.79 points
Pain intensity (PI-NRS) ([1]; T4, 8 weeks, nerve block 0.5% lidocaine once a week): 2.87 ± 0.81 points
Pain intensity (PI-NRS) ([1]; T5, 10 weeks, nerve block 0.5% lidocaine once a week): 2.37 ± 0.79 points
Pain intensity (PI-NRS) ([1]; T6, 12 weeks, nerve block 0.5% lidocaine once a week): 2.24 ± 0.91 points
Pain intensity (PI-NRS) ([1]; T6, 12 weeks, nerve block 0.5% lidocaine once a week, listed as control group): 2.24 points

C[N+](C)(C)CCOP(=O)([O-])OC[C@H](O)CO [Choline alfoscerate, choline alfoscerate]
Mechanical threshold (von Frey), Before ([2]; choline alfoscerate group): 2.59 ± 0.87 g
Mechanical threshold (von Frey), After ([2]; after choline alfoscerate 325 mg/kg intraperitoneally once a day for one week): 7.68 ± 4.48 g
Effect on mechanical allodynia (in words) [2]: significantly suppressed mechanical allodynia
Change in pain intensity of neuropathic pain (in words) ([1]; Example 1: iv 1 g twice a week, Example 2: oral 400 mg 3 times a day, 12 weeks): significant decrease in the pain intensity
Time after drug administration at which some patients reported decreased neuropathic pain ([1]; Example 1: iv, Example 2: oral, some patients): the next day
Pain intensity (PI-NRS) ([1]; T0, first visit before drug administration, choline alfoscerate iv group, 1 g/4 mL in 100 mL saline twice a week, n=59, listed as Example 1): 6.64 points and 6.64 ± 1.03 points
Pain intensity (PI-NRS) ([1]; T0, first visit before drug administration, choline alfoscerate oral group, 400 mg/capsule 3 times a day, n=54, listed as Example 2): 6.61 points and 6.61 ± 0.83 points
Decrease in pain intensity (PI-NRS) from T0 ([1]; T0 to T6 (12 weeks), choline alfoscerate iv 1 g twice a week): 4.18 points
Decrease in pain intensity (PI-NRS) from T0 ([1]; T0 to T6 (12 weeks), choline alfoscerate oral 400 mg 3 times a day): 4.48 points
Pain intensity (PI-NRS) ([1]; T1, 2 weeks after first administration, choline alfoscerate iv 1 g twice a week, listed as Example 1): 5.19 points and 5.19 ± 1.59 points
Pain intensity (PI-NRS) ([1]; T1, 2 weeks after first administration, choline alfoscerate oral 400 mg 3 times a day, listed as Example 2): 5.41 points and 5.41 ± 1.16 points
Pain intensity (PI-NRS) ([1]; T2, 4 weeks, choline alfoscerate iv 1 g twice a week): 4.56 ± 1.50 points
Pain intensity (PI-NRS) ([1]; T2, 4 weeks, choline alfoscerate oral 400 mg 3 times a day): 4.52 ± 1.42 points
Pain intensity (PI-NRS) ([1]; T3, 6 weeks, choline alfoscerate iv 1 g twice a week): 3.92 ± 1.42 points
Pain intensity (PI-NRS) ([1]; T3, 6 weeks, choline alfoscerate oral 400 mg 3 times a day): 3.63 ± 1.45 points
Pain intensity (PI-NRS) ([1]; T4, 8 weeks, choline alfoscerate iv 1 g twice a week): 3.34 ± 1.21 points
Pain intensity (PI-NRS) ([1]; T4, 8 weeks, choline alfoscerate oral 400 mg 3 times a day): 3.00 ± 1.23 points
Pain intensity (PI-NRS) ([1]; T5, 10 weeks, choline alfoscerate iv 1 g twice a week): 2.85 ± 1.10 points
Pain intensity (PI-NRS) ([1]; T5, 10 weeks, choline alfoscerate oral 400 mg 3 times a day): 2.59 ± 1.13 points
Pain intensity (PI-NRS) ([1]; T6, 12 weeks, choline alfoscerate iv 1 g twice a week, listed as Example 1): 2.46 points and 2.46 ± 0.99 points
Pain intensity (PI-NRS) ([1]; T6, 12 weeks, choline alfoscerate oral 400 mg 3 times a day, listed as Example 2): 2.13 points and 2.13 ± 0.99 points
Side effect after the treatment [3]: no side effect

CC(C)C[C@H](CN)CC(=O)O [Pregabalin, pregabalin]
Mechanical threshold (von Frey), Before ([2]; pregabalin group): 2.42 ± 0.81 g
Mechanical threshold (von Frey), After ([2]; after pregabalin 30 mg/kg intraperitoneally once a day for one week): 9.91 ± 4.12 g
Effect on mechanical allodynia (in words) [2]: significantly suppressed mechanical allodynia
